Measurements reported in patent US9309243B2, “Imidazopyridine derivatives as modulators of TNF activity” (UCB Biopharma SPRL, priority 2012, dated 2016).

Q: For `Cc1nc2cc(F)c(-c3cnc(C4(O)COC4)nc3)cn2c1Cc1ccccc1OC(F)F` [Example 322, 3-[5-(3-{[2-(Difluoromethoxy)phenyl]methyl}-7-fluoro-2-methylimidazo[1,2-a]pyridin-6-yl)pyrimidin-2-yl]oxetan-3-ol], which melting point is on record?
A: The melting point was 143 to 144 °C.
